Experimental findings from PubChem BioAssay (NCI) are described below.

SMILES strings stand for the structures.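 Cells were grown in 96-well plates and exposed to each compound for 48 hours at five concentrations; endpoints were interpolated linearly between bracketing concentrations, or set to the highest concentration if not reached. Definition used: TGI = concentration required for complete inhibition of growth.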

The first assay deals with SW-620 colon. In words: inhibition of tumour cell growth, NCI panel, 48 h.
The compound `Cc1ccc(Nc2nc3ccccc3c(=O)n2N)cc1` displayed a TGI above 100 µM.

In the case of `Nc1nc2ccc(NCc3ccc(C(=O)NC(CCC(=O)O)C(=O)O)cc3)cc2c(=O)[nH]1` (stereo not drawn), the TGI is above 100 µM.

Compound `COc1ccc([C@H]2CC(=O)C[C@H](c3ccc(OC)cc3OC)C23C(=O)c2ccccc2C3=O)c(OC)c1` gave a TGI above 100 µM.

In another assay the test system is SK-MEL-2 melanoma. The assay is described as follows: inhibition of tumour cell growth, NCI panel, 48 h.
As for `Cc1ccc(Nc2nc3ccccc3c(=O)n2N)cc1`, the TGI is above 100 µM.

The compound `Nc1nc2ccc(NCc3ccc(C(=O)NC(CCC(=O)O)C(=O)O)cc3)cc2c(=O)[nH]1` (stereo not drawn) showed a TGI above 100 µM.

`COc1ccc([C@H]2CC(=O)C[C@H](c3ccc(OC)cc3OC)C23C(=O)c2ccccc2C3=O)c(OC)c1` yielded a TGI above 100 µM.

Another assay relates to UO-31 renal. In words: inhibition of tumour cell growth, NCI panel, 48 h.
`Cc1ccc(Nc2nc3ccccc3c(=O)n2N)cc1` displayed a TGI above 100 µM.

As for `Nc1nc2ccc(NCc3ccc(C(=O)NC(CCC(=O)O)C(=O)O)cc3)cc2c(=O)[nH]1` (stereo not drawn), the TGI was above 100 µM.

In turn, `COc1ccc([C@H]2CC(=O)C[C@H](c3ccc(OC)cc3OC)C23C(=O)c2ccccc2C3=O)c(OC)c1` gave a TGI above 100 µM.

For a further assay, the system named is HOP-62 NSCLC. In words: inhibition of tumour cell growth, NCI panel, 48 h.
The compound `Cc1ccc(Nc2nc3ccccc3c(=O)n2N)cc1` registered a TGI above 100 µM.

For `Nc1nc2ccc(NCc3ccc(C(=O)NC(CCC(=O)O)C(=O)O)cc3)cc2c(=O)[nH]1` (stereo not drawn), the TGI is above 100 µM.

In the case of `COc1ccc([C@H]2CC(=O)C[C@H](c3ccc(OC)cc3OC)C23C(=O)c2ccccc2C3=O)c(OC)c1`, the TGI is above 100 µM.

A further assay concerns OVCAR-4 ovarian. The assay is described as follows: inhibition of tumour cell growth, NCI panel, 48 h.
In the case of `Cc1ccc(Nc2nc3ccccc3c(=O)n2N)cc1`, the TGI was above 100 µM.

Take `Nc1nc2ccc(NCc3ccc(C(=O)NC(CCC(=O)O)C(=O)O)cc3)cc2c(=O)[nH]1` (stereo not drawn): the TGI was above 100 µM.

Regarding `COc1ccc([C@H]2CC(=O)C[C@H](c3ccc(OC)cc3OC)C23C(=O)c2ccccc2C3=O)c(OC)c1`, the TGI was above 100 µM.

For the next assay, the system named is HL-60(TB) leukemia. In words: inhibition of tumour cell growth, NCI panel, 48 h.
As to `Cc1ccc(Nc2nc3ccccc3c(=O)n2N)cc1`, the TGI was above 100 µM.

For the compound `Nc1nc2ccc(NCc3ccc(C(=O)NC(CCC(=O)O)C(=O)O)cc3)cc2c(=O)[nH]1` (stereo not drawn), the TGI is above 100 µM.

In the case of `COc1ccc([C@H]2CC(=O)C[C@H](c3ccc(OC)cc3OC)C23C(=O)c2ccccc2C3=O)c(OC)c1`, the TGI was above 100 µM.

The test system of the next assay is SK-MEL-28 melanoma. In words: inhibition of tumour cell growth, NCI panel, 48 h.
For `Cc1ccc(Nc2nc3ccccc3c(=O)n2N)cc1`, the TGI was above 100 µM.

`Nc1nc2ccc(NCc3ccc(C(=O)NC(CCC(=O)O)C(=O)O)cc3)cc2c(=O)[nH]1` (stereo not drawn) returned a TGI above 100 µM.

`COc1ccc([C@H]2CC(=O)C[C@H](c3ccc(OC)cc3OC)C23C(=O)c2ccccc2C3=O)c(OC)c1` returned a TGI above 100 µM.

The subject of a further assay is SF-295 CNS. The assay is described as follows: inhibition of tumour cell growth, NCI panel, 48 h.
`Cc1ccc(Nc2nc3ccccc3c(=O)n2N)cc1`: the TGI is above 100 µM.

The compound `Nc1nc2ccc(NCc3ccc(C(=O)NC(CCC(=O)O)C(=O)O)cc3)cc2c(=O)[nH]1` (stereo not drawn) displayed a TGI above 100 µM.

In turn, `COc1ccc([C@H]2CC(=O)C[C@H](c3ccc(OC)cc3OC)C23C(=O)c2ccccc2C3=O)c(OC)c1` showed a TGI above 100 µM.

The subject of another assay is RXF 393 renal. The assay is described as follows: inhibition of tumour cell growth, NCI panel, 48 h.
In the case of `Cc1ccc(Nc2nc3ccccc3c(=O)n2N)cc1`, the TGI was above 100 µM.

Turning to `Nc1nc2ccc(NCc3ccc(C(=O)NC(CCC(=O)O)C(=O)O)cc3)cc2c(=O)[nH]1` (stereo not drawn), the TGI was above 100 µM.

On to `COc1ccc([C@H]2CC(=O)C[C@H](c3ccc(OC)cc3OC)C23C(=O)c2ccccc2C3=O)c(OC)c1`, for which the TGI is above 100 µM.

Another assay has as its system CCRF-CEM leukemia. The assay is described as follows: inhibition of tumour cell growth, NCI panel, 48 h.
Consider `Cc1ccc(Nc2nc3ccccc3c(=O)n2N)cc1`, for which the TGI is above 100 µM.

`Nc1nc2ccc(NCc3ccc(C(=O)NC(CCC(=O)O)C(=O)O)cc3)cc2c(=O)[nH]1` (stereo not drawn): the TGI is above 100 µM.

As to `COc1ccc([C@H]2CC(=O)C[C@H](c3ccc(OC)cc3OC)C23C(=O)c2ccccc2C3=O)c(OC)c1`, the TGI was above 100 µM.

A further assay has as its system NCI/ADR-RES ovarian. The assay is described as follows: inhibition of tumour cell growth, NCI panel, 48 h.
Regarding `Cc1ccc(Nc2nc3ccccc3c(=O)n2N)cc1`, the TGI is above 100 µM.

`Nc1nc2ccc(NCc3ccc(C(=O)NC(CCC(=O)O)C(=O)O)cc3)cc2c(=O)[nH]1` (stereo not drawn): the TGI is above 100 µM.

As to `COc1ccc([C@H]2CC(=O)C[C@H](c3ccc(OC)cc3OC)C23C(=O)c2ccccc2C3=O)c(OC)c1`, the TGI is above 100 µM.

The next assay has as its system MCF7 breast. The assay is described as follows: inhibition of tumour cell growth, NCI panel, 48 h.
On to `Cc1ccc(Nc2nc3ccccc3c(=O)n2N)cc1`, for which the TGI was above 100 µM.

Take `Nc1nc2ccc(NCc3ccc(C(=O)NC(CCC(=O)O)C(=O)O)cc3)cc2c(=O)[nH]1` (stereo not drawn): the TGI was above 100 µM.

Turning to `COc1ccc([C@H]2CC(=O)C[C@H](c3ccc(OC)cc3OC)C23C(=O)c2ccccc2C3=O)c(OC)c1`, the TGI is above 100 µM.

For a further assay, the system named is EKVX NSCLC. The assay is described as follows: inhibition of tumour cell growth, NCI panel, 48 h.
Compound `Cc1ccc(Nc2nc3ccccc3c(=O)n2N)cc1` had a TGI above 100 µM.

`Nc1nc2ccc(NCc3ccc(C(=O)NC(CCC(=O)O)C(=O)O)cc3)cc2c(=O)[nH]1` (stereo not drawn) registered a TGI above 100 µM.

`COc1ccc([C@H]2CC(=O)C[C@H](c3ccc(OC)cc3OC)C23C(=O)c2ccccc2C3=O)c(OC)c1`: the TGI was above 100 µM.

A further assay has as its system UACC-62 melanoma. In words: inhibition of tumour cell growth, NCI panel, 48 h.
With `Cc1ccc(Nc2nc3ccccc3c(=O)n2N)cc1`, the TGI was above 100 µM.

`Nc1nc2ccc(NCc3ccc(C(=O)NC(CCC(=O)O)C(=O)O)cc3)cc2c(=O)[nH]1` (stereo not drawn) displayed a TGI above 100 µM.

Consider `COc1ccc([C@H]2CC(=O)C[C@H](c3ccc(OC)cc3OC)C23C(=O)c2ccccc2C3=O)c(OC)c1`, for which the TGI is above 100 µM.

The subject of a further assay is RPMI-8226 leukemia. The assay is described as follows: inhibition of tumour cell growth, NCI panel, 48 h.
Compound `Cc1ccc(Nc2nc3ccccc3c(=O)n2N)cc1` yielded a TGI above 100 µM.
